Results as given in PMC6540285, “Evaluation of Protein Kinase Inhibitors with PLK4 Cross-Over Potential in a Pre-Clinical Model of Cancer” (International Journal of Molecular Sciences, 2019).
Where two headings read alike, the source gives them in different places.

Assays:
D283 cells [1] = assay type: cell-based
MON cells [2] = test: cells; conditions: read-out: MTT: IC50 of the proliferation assay
PLK4 = molecular target: T1, PLK4 (Homo sapiens, UniProt O00444); test: LanthaScreen Eu Kinase Binding Assay, 10-point IC50; conditions: SelectScreen, 10-point titration
T1 sequence (O00444 1-970): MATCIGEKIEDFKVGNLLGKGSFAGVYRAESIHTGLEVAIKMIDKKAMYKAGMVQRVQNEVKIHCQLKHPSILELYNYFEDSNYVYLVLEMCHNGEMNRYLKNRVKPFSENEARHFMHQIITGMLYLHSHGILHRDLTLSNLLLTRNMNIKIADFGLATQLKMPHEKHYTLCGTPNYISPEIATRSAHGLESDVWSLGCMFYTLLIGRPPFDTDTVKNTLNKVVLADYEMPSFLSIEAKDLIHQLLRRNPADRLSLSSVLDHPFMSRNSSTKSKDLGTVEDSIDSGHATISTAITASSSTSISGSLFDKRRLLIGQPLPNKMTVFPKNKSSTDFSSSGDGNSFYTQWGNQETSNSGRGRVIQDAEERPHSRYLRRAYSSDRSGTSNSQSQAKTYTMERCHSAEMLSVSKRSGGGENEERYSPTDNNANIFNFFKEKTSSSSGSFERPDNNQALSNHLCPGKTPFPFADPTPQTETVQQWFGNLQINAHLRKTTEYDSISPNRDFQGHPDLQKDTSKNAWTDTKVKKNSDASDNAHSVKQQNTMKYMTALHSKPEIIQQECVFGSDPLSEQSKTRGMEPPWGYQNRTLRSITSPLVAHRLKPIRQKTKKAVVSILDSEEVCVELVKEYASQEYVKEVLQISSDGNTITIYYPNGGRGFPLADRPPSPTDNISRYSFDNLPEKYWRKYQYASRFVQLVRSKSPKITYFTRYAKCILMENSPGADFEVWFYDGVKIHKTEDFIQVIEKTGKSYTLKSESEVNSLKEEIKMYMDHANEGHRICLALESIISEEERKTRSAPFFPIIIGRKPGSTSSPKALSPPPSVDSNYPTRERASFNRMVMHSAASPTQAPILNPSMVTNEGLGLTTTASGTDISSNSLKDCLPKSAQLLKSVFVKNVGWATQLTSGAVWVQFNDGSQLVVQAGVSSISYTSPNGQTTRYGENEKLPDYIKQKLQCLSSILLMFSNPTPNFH
Excerpt: (§1) Curves were generated from the compound concentration and the corresponding percent (%) inhibition calculated for each concentration tested. For PLK4, we used the LanthaScreen Eu Kinase Binding Assay (Thermo Fisher Scientific, Carlsbad, CA, USA) that utilizes an Alexa Fluor conjugated “tracer” and an Eu-labeled anti-tag antibody to measure binding of a compound to the kinase target. For AURKs (AURKA, AURKB and AURKC) we used the Z’ LYTE Kinase Assay (Thermo Fisher Scientific, Carlsbad, CA, USA) that determines the differential sensitivity of phosphorylated and non-phosphorylated peptide substrates to proteolytic cleavage using a FRET-based readout.

AURKA = molecular target: T2, AURKA (Homo sapiens, UniProt O14965); test: Z' LYTE Kinase Assay, 10-point IC50; assay type: biochemical; conditions: SelectScreen, 10-point titration
T2 sequence (O14965 1-403): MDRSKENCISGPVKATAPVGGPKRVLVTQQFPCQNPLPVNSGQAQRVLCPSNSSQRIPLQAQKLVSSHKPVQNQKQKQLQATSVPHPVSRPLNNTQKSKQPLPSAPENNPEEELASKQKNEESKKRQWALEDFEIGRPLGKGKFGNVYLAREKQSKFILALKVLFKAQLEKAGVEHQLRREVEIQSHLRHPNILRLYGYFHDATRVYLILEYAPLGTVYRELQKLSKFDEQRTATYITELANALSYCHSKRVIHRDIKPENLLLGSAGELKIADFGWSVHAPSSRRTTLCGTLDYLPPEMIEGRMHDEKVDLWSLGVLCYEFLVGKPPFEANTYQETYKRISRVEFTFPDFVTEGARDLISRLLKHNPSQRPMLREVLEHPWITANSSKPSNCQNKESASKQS
Excerpt: as §1

AURKB = AURKB (Homo sapiens, UniProt Q96GD4); test: Z' LYTE Kinase Assay, 10-point IC50; assay type: biochemical; conditions: SelectScreen, 10-point titration
Sequence of AURKB (Q96GD4 whole entry): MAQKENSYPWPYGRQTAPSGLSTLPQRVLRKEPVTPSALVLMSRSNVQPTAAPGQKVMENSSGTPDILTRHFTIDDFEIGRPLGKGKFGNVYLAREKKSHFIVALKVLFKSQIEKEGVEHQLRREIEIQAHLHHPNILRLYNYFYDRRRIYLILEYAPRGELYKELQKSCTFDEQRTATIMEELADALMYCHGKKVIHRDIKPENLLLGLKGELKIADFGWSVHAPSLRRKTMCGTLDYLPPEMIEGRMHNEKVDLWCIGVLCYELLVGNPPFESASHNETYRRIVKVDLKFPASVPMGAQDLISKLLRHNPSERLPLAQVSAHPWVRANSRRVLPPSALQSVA
Excerpt: as §1

AURKC = molecular target: T3, AURKC (Homo sapiens, UniProt Q9UQB9); test: Z' LYTE Kinase Assay, 10-point IC50; assay type: biochemical; conditions: SelectScreen, 10-point titration
T3 sequence (Q9UQB9 1-309): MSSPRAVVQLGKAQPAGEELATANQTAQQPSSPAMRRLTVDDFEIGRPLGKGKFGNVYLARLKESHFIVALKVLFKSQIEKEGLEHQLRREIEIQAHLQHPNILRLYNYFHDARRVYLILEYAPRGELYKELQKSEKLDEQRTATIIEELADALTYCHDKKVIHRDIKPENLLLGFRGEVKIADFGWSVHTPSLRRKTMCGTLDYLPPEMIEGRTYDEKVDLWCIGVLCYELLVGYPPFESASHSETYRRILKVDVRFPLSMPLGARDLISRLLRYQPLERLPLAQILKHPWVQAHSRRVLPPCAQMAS
Excerpt: as §1

BT-16 cells [3] = assay type: cell-based; conditions: BT-16, read-out: MTT: IC50 of the proliferation assay
DAOY cells [4] = assay type: cell-based; conditions: Homo sapiens, read-out: MTT: IC50 of the proliferation assay
BT-12 cells [5] = assay type: cell-based; conditions: Homo sapiens, BT-12, read-out: MTT: IC50 of the proliferation assay
RT and MB cells [6] = test: Clonogenic colony formation assay; assay type: cell-based; conditions: 50nM
Protocol: All cell lines were seeded at 200 cells per well in six-well plates and incubated overnight. After 24 h, the treatment medium was added and changed once a week. Cells were treated with 0.01, 0.05, 0.1, 0.2, 0.5, 1, 5, and 10 µM of PLK4i and 0.1% DMSO as control. After 14 days, the cells were washed twice with 1x PBS, fixed with formalin, and stained with Cresyl violet (ACROS Organics, Pittsburgh, PA, USA). Colonies were counted using the ImageJ software (www.imagej.nih.gov, accessed on April 21, 2017).

RT and MB cells [7] = test: Beta-galactosidase senescence assay; assay type: cell-based; conditions: all cell lines
Protocol: Senescence was evaluated using the Beta-galactosidase assay (Senescence Cells Histochemical Staining Kit CS0030 (Sigma, St Louis, MO, USA) and clonogenic recovery assay as previously described.

RT and MB cells [8] = test: Cell cycle analysis (PI flow cytometry); assay type: cell-based; conditions: for polyploidy: cell lines tested, concentration not given
Protocol: Cell cycle analysis was performed by flow cytometry of cells stained with Propidium Iodide (PI) (Thermo Fisher Scientific, Carlsbad, CA, USA) according to manufacturer’s instructions. Cells treated with the top PLK4i candidates and 0.1% DMSO (control) were fixed in 80% ethanol overnight, stained with PI, and then subjected to flow cytometric analysis using a BD Fortessa instrument (BD Biosciences, San Jose, CA, USA). Data was analyzed using Modfit LT from Verity Software House (Topsham, ME, USA). All experiments were performed in triplicate.

BT-16 cells [9] = test: PrestoBlue Cell Viability assay; assay type: cell-based
Protocol: (§2) Cell viability was assessed using the Presto Blue™ Cell Viability reagent (Thermo Fisher Scientific, Carlsbad, CA, USA) following the manufacturer’s instructions. Cells were plated in 96-well plates at the same densities described above for the proliferation assay. The fluorescence was measured after 24, 48, 72, and 96 h at concentrations ranging from 0.001 to 10 µM of the inhibitor. All assays were performed in triplicate.

D283 cells [10] = test: PrestoBlue Cell Viability assay; assay type: cell-based
Protocol: as §2

MON cells [11] = test: PrestoBlue Cell Viability assay; assay type: cell-based; conditions: read-out: PB: IC50 of the PrestoBlue Viability assay
Protocol: as §2

DAOY cells [12] = test: PrestoBlue Cell Viability assay; assay type: cell-based; conditions: Homo sapiens, read-out: PB: IC50 of the PrestoBlue Viability assay
Protocol: as §2

BT-12 cells [13] = test: PrestoBlue Cell Viability assay; assay type: cell-based
Protocol: as §2

[14] = D283, read-out: MTT: IC50 of the proliferation assay
[15] = BT-16; read-out: PB: IC50 of the PrestoBlue Viability assay
[16] = D283, read-out: PB: IC50 of the PrestoBlue Viability assay
[17] = Homo sapiens, BT-12; read-out: PB: IC50 of the PrestoBlue Viability assay
[18] = BT-16, read-out: PB: IC50 of the PrestoBlue Viability assay
[19] = Homo sapiens, BT-12, read-out: PB: IC50 of the PrestoBlue Viability assay

Structure (SMILES)	IC50 (D283 cells [1]; [14])	IC50 (MON cells [2])	IC50 (PLK4)	IC50 (AURKA)	IC50 (AURKB)	IC50 (AURKC)	IC50 (BT-16 cells [3])	IC50 (DAOY cells [4])	IC50 (BT-12 cells [5])	colony formation (RT and MB cells [6])	cell senescence (beta-galactosidase) (RT and MB cells [7])	IC50 (BT-16 cells [9]; [15])	IC50 (D283 cells [10]; [16])	IC50 (MON cells [11])	IC50 (DAOY cells [12])	IC50 (BT-12 cells [13]; [17])	IC50 (BT-16 cells [9]; [18])	IC50 (BT-12 cells [13]; [19])	polyploidy (RT and MB cells [8])	also measured
COc1ccc2c(c1)/C(=C\c1ccc3c(/C=C/c4ccc(N5CCN(C)CC5)nc4)n[nH]c3c1)C(=O)N2 [CFI-400437]	> 10000 nM	722 nM	1.55 nM	37.2 nM	13.1 nM	4.88 nM	1920 nM	684 nM	61.6 nM	complete inhibition of colony formation in all cell lines	induction of cell senescence	> 10000 nM	6300 nM	640 nM	768 nM	604 nM	–	–	–	polyploidy (cell cycle analysis) (RT and MB cells [8]; 500 nM): induction of polyploidy
COc1ccc2c(c1)[C@]1(C[C@H]1c1ccc3c(/C=C/c4ccc(CN5C[C@@H](C)O[C@@H](C)C5)cc4)n[nH]c3c1)C(=O)N2 [CFI-400945, (1r,2s).2-(3-((e).4-(((cis).2,6-dimethylmorpholino)methyl)styryl). 1h.Indazol-6-yl)-5′-methoxyspiro[cyclopropane-1,3′-indolin]-2′-one]	–	–	–	–	–	–	–	–	–	–	–	–	8400 nM	5130 nM	94 nM	–	5830 nM	8470 nM	–	–
COc1cc2c(cc1F)C(c1ccccc1Cl)=Nc1c(n[nH]c1C)N2 [R1530]	> 10000 nM	3200 nM	7.06 nM	6.22 nM	42.6 nM	30.9 nM	3900 nM	829 nM	> 10000 nM	–	–	> 10000 nM	> 10000 nM	3750 nM	1850 nM	> 10000 nM	–	–	–	–
COc1cc(Nc2ncc3c(n2)-c2ccc(Cl)cc2C(c2c(F)cccc2OC)=NC3)ccc1C(=O)O [alisertib]	–	358 nM	–	–	–	9.43 nM	–	340 nM	–	–	–	> 10000 nM	–	–	31 nM	> 10000 nM	–	–	–	IC50 (D283 cells [1]; D283; read-out: MTT: IC50 of the proliferation assay): 9530 nM; IC50 (D283 cells [10]; D283; read-out: PB: IC50 of the PrestoBlue Viability assay): 9130 nM; IC50 (MON cells [11]; MON): 213 nM
COc1c(Nc2cc(C)[nH]n2)nc(Sc2ccc(S(=O)(=O)Cc3cccc([N+](=O)[O-])c3F)cc2F)nc1N1CCOCC1 [centrinone]	–	–	–	108 nM	680 nM	493 nM	–	–	–	complete inhibition of colony formation in all cell lines except the MB cell line DAOY and the RT cell line BT-16	induction of cell senescence	–	–	5000 nM	4500 nM	–	2220 nM	3400 nM	did not induce polyploidy	polyploidy (cell cycle analysis) (RT and MB cells [8]; 1µM): no polyploidy
COc1c(Nc2cc(C)[nH]n2)nc(Sc2ccc(S(=O)(=O)Cc3cccc([N+](=O)[O-])c3F)cc2F)nc1N1CCCCC1 [centrinone B]	1240 nM	> 10000 nM	8.69 nM	623 nM	10000 nM	5810 nM	5470 nM	> 10000 nM	5190 nM	–	–	> 10000 nM	1740 nM	> 10000 nM	> 10000 nM	6320 nM	–	–	did not induce polyploidy	–
